Values quoted from earlier work as cited in patent US20200330541A1, “COMPOSITIONS AND METHODS FOR MODULATING ENDOTHELIAL CELL MIGRATION AND ANGIOGENESIS” (University of Maine System Board of Trustees, priority 2017, published 2020).

Experiments:
[1] = system: RAC1; details: smooth muscle cells, 24 hour exposure at 1 μmol/L and 100 μmol/L, compared to untreated cells
[2] = system: HUVEC; details: 200 μM, 100 μM, and 50 μM
[3] = system: smooth muscle cell
[4] = system: endothelial cell; details: through the JAK/STAT3 and MAPK signaling pathways
[5] = healthy humans after consumption of black currant

O=C(O)/C=C/c1ccc(O)c(O)c1 [caffeic acid]
RAC1 protein synthesis [1]: significantly decreased

Delph inidin-3-(p-coumaroylrutinoside)-5-glucoside [nasunin]
HUVEC proliferation rate [2]: inhibit

OC[C@H]1O[C@@H](Oc2cc3c(O)cc(O)cc3[o+]c2-c2ccc(O)cc2)[C@H](O)[C@@H](O)[C@@H]1O [pelargonidin-3-glucoside]
cell proliferation and smooth muscle cell migration [3]: inhibitory effect

O=c1oc2c(O)c(O)cc3c(=O)oc4c(O)c(O)cc1c4c23 [ellagic acid]
endothelial cell migration, proliferation, and tubulogenesis [4]: inhibited

O=c1cc(-c2ccc(O)cc2)oc2cc(O)cc(O)c12 [apigenin]
endothelial cell migration, proliferation, and tubulogenesis [4]: inhibited

epigallocatechin-3 gallate
endothelial cell migration, proliferation, and tubulogenesis [4]: inhibited

C[C@@H]1O[C@@H](OC[C@H]2O[C@@H](Oc3cc4c(O)cc(O)cc4[o+]c3-c3cc(O)c(O)c(O)c3)[C@H](O)[C@@H](O)[C@@H]2O)[C@H](O)[C@H](O)[C@H]1O [D3R, delphinidin, 3-O-β-rutinoside]
concentration in the plasma [5]: 0.0737 ± 0.035 µM
